From the NIST ThermoML archive (doi:10.1016/j.fluid.2014.04.028)

Assays:
[1] = Crystal; DTA
[2] = Molar enthalpy of transition or fusion; conditions: Crystal; DSC
[3] = molar heat capacity at constant pressure; conditions: 101.33 kPa, Small sample (50 mg) DSC

Cc1nc2n(c(=O)c1CCN1CCC(c3noc4cc(F)ccc34)CC1)CCCC2 [risperidone]
Conditions	Molar enthalpy of transition or fusion [kcal/mol]	Normal melting temperature [°C]
[1]	–	169.23
[2]	10.5	–

[3]
Conditions	molar heat capacity at constant pressure [J/K/mol]
270.1 K, Crystal	471
275 K, Crystal	476
280.1 K, Crystal	480
284.9 K, Crystal	483
290.1 K, Crystal	489
294.9 K, Crystal	495
300.1 K, Crystal	502
304.9 K, Crystal	509
310.1 K, Crystal	516
314.9 K, Crystal	523
320.1 K, Crystal	530
324.9 K, Crystal	537
330.1 K, Crystal	544
334.9 K, Crystal	551
340 K, Crystal	558
345.1 K, Crystal	564
350 K, Crystal	571
355.1 K, Crystal	578
359.9 K, Crystal	583
365 K, Crystal	590
370.1 K, Crystal	597
375 K, Crystal	602
380.1 K, Crystal	609
384.9 K, Crystal	615
390 K, Crystal	621
394.9 K, Crystal	627
400 K, Crystal	634
405.1 K, Crystal	641
409.9 K, Crystal	647
430.1 K, Liquid	839
434.9 K, Liquid	842
440 K, Liquid	845
445.1 K, Liquid	850
449.9 K, Liquid	854
453 K, Liquid	856
